For 1 substance, time-kill profile and MIC results are on record in patent US12728136B2, “Liposomal nano formulation of combinational antibiotics and the uses thereof” (Purdue Research Foundation, priority 2018, dated 2026).

Common to all, as to assay type: cell-based, Pseudomonas aeruginosa
Experiment [1] relates to P. aeruginosa H133880624. Kind of experiment: In vitro static time-kill experiment. Conditions: colistin 2 mg/L and/or ciprofloxacin 8 mg/L; 0-24 hrs; FIG. 13B. How it is done: (§1) All samples were dissolved in CAMHB and all experiments were performed with an initial inoculum of ~10^6 CFU/mL in 20 mL of CAMHB in 50 mL pyrogen-free and sterile polypropylene tubes. […] Serial samples (50 μL) were obtained at 0, 1, 3, 6 and 24 hrs for viable cell counting and determination of drug concentrations. All samples were centrifuged at 12000×g for 10 min and cell pellets were resuspended in 0.9% saline and diluted accordingly for viable counting on nutrient agar plates. The bacteria were incubated at 37° C. for 24 hrs and the limit of detection was 20 CFU/mL (equivalent to one colony per plate). The colonies were counted with a ProtoCOL colony counter (Synbiosis, Cambridge, United Kingdom).

The test system of experiment [2] is P. aeruginosa H131300444. Kind of experiment: In vitro static time-kill experiment. The settings on record: colistin 2 mg/L and/or ciprofloxacin 8 mg/L; 0-24 hrs; FIG. 13A. How it is done: as §1
Experiment [3] deals with P. aeruginosa H133880624. Kind of experiment: Minimum inhibitory concentration, broth microdilution. The settings on record: clinical isolate P. aeruginosa H133880624. How it is done:
(§2) Briefly, fresh cultures of each strain were diluted in Cation-Adjusted Mueller-Hinton Broth (CAMHB; Mg^2+ at 12.2 mg/L and Ca^2+ at 23.0 mg/L [Oxoid, Hampshire, England]) giving an approximately inoculum of 10^^6 colony-forming units (CFU/ml) as the inocula. Drug concentrations of 0, 0.125, 0.25, 0.5, 1, 2, and 4 mg/L were derived from diluting the stock drug solution (5.12 mg/mL) with CAMHB.

In experiment [4] the test system is P. aeruginosa H131300444. Described as above. The settings on record: clinical isolate P. aeruginosa H131300444. How it is done: as §2

The MIC is the least concentration at which growth counts as inhibited.

With Colistin sulfate, the time-kill profile entry in the experiment with P. aeruginosa H133880624 [1] and in the experiment on P. aeruginosa H131300444 [2] was “no antibacterial effect” in each case. In addition, the MIC in the experiment with P. aeruginosa H133880624 [3] and in the experiment with P. aeruginosa H131300444 [4] was 128 µg/mL in each case.
